{
  "source": "patent US9381349B2",
  "about": "“Apparatus for treating cerebral neurovascular disorders including headaches by neural stimulation” (priority 1997, dated 2016)",
  "key": {"nerve structure": {"test_system": "nerve structure", "details": "in vivo; cited from earlier work"}, "recurring migraine": {"test_system": "recurring migraine", "test": "Dorsonasal ropivacaine therapy in recurring migraine: frequency and severity of subsequent episodes (Example 3)", "assay_type": "in vivo, human", "excerpt": "The following studies relate to the methods of decreasing the frequency and severity of CNvD episodes described herein, and involved three patients.\nA patient, herein designated “patient 3-1” was afflicted with recurring severe migraine, wherein acute migraine episodes were associated with nausea and visual changes. Patient 3-1 generally rated the severity of head pain associated with acute migraine episodes in the range from five to eight using the pain scale described herein. Patient 3-1 experienced, on average, about one acute migraine episode per week prior to beginning dorsonasal ropivacaine therapy. In addition, patient 3-1 also usually experienced about one severe acute migraine episode per month, associated with menses, wherein the severity of head pain was from eight to ten using the pain scale described herein.\nRopivacaine was dorsonasally administered to patient 3-1 using the cotton swab technique described herein. The patient has consistently experienced relief from all of the symptoms of their CNvD episodes within 3 to 5 minutes following administration of ropivacaine, regardless of whether the episodes are associated with menses.\nA person, herein designated, “patient 3-2,” was afflicted with recurring migraines. […] Head pain associated with the patient's acute migraine episodes is typically preceded by visual changes which they describe as a curtain-like wave of scotomata moving from left to right until they are unable to see. The patient then becomes disoriented with respect to time and place and must sit or lay down. Following these prodromal symptoms, a severe headache, rated 10 on the pain scale described herein, begins and typically endures for 45 to 60 minutes. The patient remains completely debilitated for the duration of the headache, unable to move about or walk. As the headache subsides, the patient's vision returns, and the patient is left feeling exhausted, as if they had not slept the night before.\nA person, herein designated, “patient 3-3,” experienced about 3 to 5 recurring migraine episodes per week prior to beginning dorsonasal ropivacaine therapy. The initial severity of these headaches was reported to be 10, using the pain scale described herein. When ropivacaine was administered, using the saturated swab method described herein, to patient 3-3 during a headache episode, the patient reported a decrease in head pain from a rating of 10 to a rating of 0 or 1 within 10 minutes following ropivacaine administration. Furthermore, after three months of dorsonasal ropivacaine treatment, patient 3-3 reported that the frequency of their headache episodes had decreased to about 1 to 2 times weekly and that the initial severity of their headaches was in the range from about 7 to about 8, rather than 10."}, "[1]": {"details": "cited from earlier work"}, "tinnitus": {"test_system": "tinnitus", "test": "Inhibition of tinnitus by dorsonasal administration of ropivacaine (Example 4)", "assay_type": "in vivo, human", "excerpt": "Ropivacaine was dorsonasally administered to each of three patients using the nasal spray method or the nasal drops method described herein."}, "[2]": {"details": "patient 3-1, about three or four months after initiation"}, "[3]": {"details": "patient 4-3, 1 milliliter 0.75% (w/v) per nostril, nasal drop"}},
  "data": [
    {"smiles": "CCCN1CCCC[C@H]1C(=O)Nc1c(C)cccc1C", "note": "[Ropivacaine, ropivacaine]", "values": [
      {"measurement": "Anesthetic effect of 0.75% (w/v) ropivacaine-HCl relative to lidocaine", "setting": "nerve structure", "value": "approximately equivalent to that of 3% (w/v) lidocaine"},
      {"measurement": "Frequency of subsequent acute migraine episodes", "setting": "recurring migraine; [2]", "value": "decrease in the frequency with which acute migraine episodes not associated with menses occurred"},
      {"measurement": "Initial severity of subsequent acute migraine episodes", "setting": "recurring migraine; [2]", "value": "decrease in the initial severity of acute migraine episodes not associated with menses"},
      {"measurement": "Frequency of headaches after therapy", "setting": "recurring migraine; patient 3-2, after four to six months of therapy", "value": "approximately one headache every two months or longer"},
      {"measurement": "Initial headache pain (prior to administration) after therapy", "setting": "recurring migraine; patient 3-2, after four to six months of therapy, previously about 10", "value": "≤ 2"},
      {"measurement": "Time to complete resolution of headache", "setting": "recurring migraine; patient 3-2, nasal spray", "value": "completely resolved by fifteen minutes"},
      {"measurement": "Headache pain intensity after administration", "setting": "recurring migraine; patient 3-2, nasal spray, from 10, within one to two minutes, pain scale 0-10", "value": "2-3"},
      {"measurement": "Proportion bound to protein in vivo", "setting": "[1]", "value": "Approximately 95%"},
      {"measurement": "Time to relief of head pain and tinnitus symptoms", "setting": "tinnitus; patient 4-1, dorsonasal spray", "value": "within about five minutes"},
      {"measurement": "Decrease in head pain", "setting": "tinnitus; patient 4-2, dorsonasal spray, non-neurovascular chronic head pain", "value": "about 2 points"},
      {"measurement": "Reduction in tinnitus symptoms, right ear", "setting": "tinnitus; [3]", "value": "50-75%"},
      {"measurement": "Tinnitus symptoms, left ear", "setting": "tinnitus; [3]", "value": "complete relief"},
      {"measurement": "Inhibition of tinnitus, patients", "setting": "tinnitus; three patients, nasal spray or nasal drops", "value": "All three patients experienced inhibition of tinnitus"}
    ]}
  ]
}
